From ChEMBL document CHEMBL1127972 (Bioorg Med Chem Lett, 1994) come the findings set out here.

Assay [1] concerns the target T1, Muscarinic acetylcholine receptor M1 (Rattus norvegicus, UniProt P08482).
T1 sequence (P08482 whole entry): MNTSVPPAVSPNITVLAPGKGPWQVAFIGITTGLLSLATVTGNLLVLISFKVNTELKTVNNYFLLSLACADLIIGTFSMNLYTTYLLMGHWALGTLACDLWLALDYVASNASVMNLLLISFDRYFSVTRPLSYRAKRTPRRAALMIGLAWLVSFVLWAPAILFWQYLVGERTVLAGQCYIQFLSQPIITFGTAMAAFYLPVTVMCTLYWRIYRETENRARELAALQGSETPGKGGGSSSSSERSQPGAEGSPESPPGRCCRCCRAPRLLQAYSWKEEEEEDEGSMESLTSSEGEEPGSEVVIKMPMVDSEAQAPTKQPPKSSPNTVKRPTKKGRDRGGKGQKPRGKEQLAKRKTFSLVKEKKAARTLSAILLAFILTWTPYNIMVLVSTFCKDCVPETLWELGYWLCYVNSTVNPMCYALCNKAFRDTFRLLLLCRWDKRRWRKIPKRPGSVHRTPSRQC
The assay can be described thus: In vitro binding affinity towards Muscarinic acetylcholine receptor M1 by the displacement of [3H]pirenzepine in rat cerebral cortical membranes. The assay is classed as cell membranes, Membrane. In general terms: Displacement assays read how much labelled ligand stays bound in the presence of the test substance.

Assay [2] addresses T2, Muscarinic acetylcholine receptor M1 (Homo sapiens) (UniProt P11229).
T2 sequence (whole entry): T1 sequence (P08482 whole entry) with V5A, S254T, S309P, K320R, G337A, V413I
The assay can be described thus: Percent stimulation of phospholipid hydrolysis in BHK cells transfected with human Muscarinic acetylcholine receptor M1 compared to maximal stimulation of carbachol at a dose of 100 uM. It counts as functional, cell-based.

The target in assay [3] is T1, Muscarinic acetylcholine receptor M1. Briefly: In vitro binding affinity towards Muscarinic acetylcholine receptor M1 by the displacement of [3H]oxotremorine-M in rat brain membranes. The assay is classed as cell membranes.

Where a chain is given by its changes, count along the chain named.

As for `C=CCCCOc1nsnc1C1=CCC(C)N(C)C1` (stereo not drawn), the figures for the 50% inhibitory concentration (IC50) in assay [1] and in assay [3] were 8 nM and 10 nM, respectively. The same molecule had a Stimulation in assay [2] of 12%.
As for `CCCOc1nsnc1C1=CCCN(C)C1`, the Stimulation in assay [2] came to 25%. Also, the IC50 (as a rule, the point on the concentration scale where inhibition reaches its midpoint) in assay [3] was 2 nM.
As for `CCCCCCOc1nsnc1C1=CC(C)CN(C)C1` (stereo not drawn), the values for the half-maximal inhibitory concentration (IC50) in assay [1] and in assay [3] were 7 nM and 14 nM, respectively. Besides, in assay [2], the Stimulation amounted to 12%.
Regarding `COc1nsnc1C1=CC(C)CN(C)C1` (stereo not drawn), the results for the IC50 in assay [1] and in assay [3] were 580 nM and 600 nM, respectively.
For `CCCCCCOc1nsnc1C1=C(C)CCN(C)C1` the same measures were 112 nM and 100 nM.
For the molecule `CCCCCOc1nsnc1C1=CCC(C)N(C)C1` (stereo not drawn), the figures for the IC50 in assay [1] and in assay [3] were 5 nM and 9 nM, respectively. For the same molecule, the Stimulation in assay [2] stood at 18%.
For `CCC#CCCOc1nsnc1C1=CCC(C)N(C)C1` (stereo not drawn) the same measures were 5 nM, 6 nM and 12%.
For `CCCOc1nsnc1C1=CC(C)CN(C)C1` (stereo not drawn), in that order: 15 nM, 17 nM and 6%.
As for `CCCCCCOc1nsnc1C1=CCCN(C)C1C` (stereo not drawn), the values for the IC50 in assay [1] and in assay [3] were 48 nM and 83 nM, respectively.
In the case of `CCCCCCOc1nsnc1C1=CCC(C)N(C)C1` (stereo not drawn), the IC50 in assay [1] amounted to 5 nM; in assay [3] it was 6 nM. In assay [2], this molecule showed a Stimulation of 27%.
Take `CCCCCCOc1nsnc1C1=CCCN(C)C1`: in assay [2], the Stimulation is 70%.
For `COc1nsnc1C1=C(C)CCN(C)C1`, the half-inhibitory concentration (IC50) in assay [1] and in assay [3] was 1000 nM in each case.
`COc1nsnc1C1=CCCN(C)C1` yielded a Stimulation in assay [2] of 7%.
On to `CCOc1nsnc1C1=CCC(C)N(C)C1` (stereo not drawn), for which the results for the IC50 in assay [1] and in assay [3] were 24 nM and 11 nM, respectively. Further, in assay [2], the Stimulation was determined as 10%.
`CCCCCCOc1nsnc1C1=CC2(C)CCCCC2(C)N(C)C1` (stereo not drawn): the IC50 in assay [1] turned out to be 1230 nM; in assay [3], 1000 nM.
Take `CCCCOc1nsnc1C1=CCC(C)N(C)C1` (stereo not drawn): the IC50 in assay [1] amounted to 8 nM; in assay [3], 9 nM. The Stimulation in assay [2] came out at 9%.
